Reference: PubChem BioAssay AID2060509 (Molecular Pharmacology Branch, DTP, NCI, 2025)

Tested on: 485176-168-R4-J1-PDC spheroids with HUVEC/MSC, viability
Test: Anticancer human tumor 485176-168-R4-J1-PDC patient-derived pancreatic adenocarcinoma cell line growth inhibition [GQUAD]
Conditions: for IC50: curve of first compound; for viability, T/C: stronger effect = lower value
How it was run: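 Tumor cells were grown as complex spheroids with HUVEC endothelial cells and mesenchymal stem cells as stroma. G-quadruplex stabilizers were combined with targeted agents over half-log dilutions from near the clinical Cmax, or from 10 microM.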

[1] = second compound 0.0316 µM, first compound 0.000999 µM
[2] = second compound 0.0316 µM, first compound 0.00316 µM
[3] = second compound 0.0316 µM, first compound 0.00999 µM
[4] = second compound 0.0316 µM, first compound 0.0316 µM
[5] = second compound 0.0316 µM, first compound 0.0999 µM
[6] = second compound 0.0316 µM, first compound 0.316 µM
[7] = second compound 0.1 µM, first compound 0.000999 µM
[8] = second compound 0.1 µM, first compound 0.00316 µM
[9] = second compound 0.1 µM, first compound 0.00999 µM
[10] = second compound 0.1 µM, first compound 0.0316 µM
[11] = second compound 0.1 µM, first compound 0.0999 µM
[12] = second compound 0.1 µM, first compound 0.316 µM
[13] = second compound 0.316 µM, first compound 0.000999 µM
[14] = second compound 0.316 µM, first compound 0.00316 µM
[15] = second compound 0.316 µM, first compound 0.00999 µM
[16] = second compound 0.316 µM, first compound 0.0316 µM
[17] = second compound 0.316 µM, first compound 0.0999 µM
[18] = second compound 0.316 µM, first compound 0.316 µM
[19] = second compound 1 µM, first compound 0.000999 µM
[20] = second compound 1 µM, first compound 0.00316 µM
[21] = second compound 1 µM, first compound 0.00999 µM
[22] = second compound 1 µM, first compound 0.0316 µM
[23] = second compound 1 µM, first compound 0.0999 µM
[24] = second compound 1 µM, first compound 0.316 µM
[25] = second compound 3.16 µM, first compound 0.000999 µM
[26] = second compound 3.16 µM, first compound 0.00316 µM
[27] = second compound 3.16 µM, first compound 0.00999 µM
[28] = second compound 3.16 µM, first compound 0.0316 µM
[29] = second compound 3.16 µM, first compound 0.0999 µM
[30] = second compound 3.16 µM, first compound 0.316 µM
[31] = second compound 10 µM, first compound 0.000999 µM
[32] = second compound 10 µM, first compound 0.00316 µM
[33] = second compound 10 µM, first compound 0.00999 µM
[34] = second compound 10 µM, first compound 0.0316 µM
[35] = second compound 10 µM, first compound 0.0999 µM
[36] = second compound 10 µM, first compound 0.316 µM
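Further: spheroids exposed to compounds for seven days before readout.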
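Wherever viability, T/C is given: percent viability relative to DMSO vehicle control wells as 100%.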

CC[C@@]1(O)C(=O)OCc2c1cc1n(c2=O)Cc2cc3c(CN(C)C)c(O)ccc3nc2-1 + Cc1cnc(CNC(=O)c2c(=O)c3ccc(N4CCCN(C)CC4)nc3n3c2sc2ccccc23)cn1
IC50 (second compound 0.0316 µM): 113 nM
IC50 (second compound 0.1 µM): 59.2 nM
IC50 (second compound 0.316 µM): 43.4 nM
IC50 (second compound 1 µM): 10.9 nM
IC50 (second compound 3.16 µM): 1.18 nM
IC50 (second compound 10 µM): < 0.999 nM
viability, T/C [1]: 94.4%
viability, T/C [2]: 84.9%
viability, T/C [3]: 87.5%
viability, T/C [4]: 70.3%
viability, T/C [5]: 52.8%
viability, T/C [6]: 29.3%
viability, T/C [7]: 75.8%
viability, T/C [8]: 72.1%
viability, T/C [9]: 88.9%
viability, T/C [10]: 60.9%
viability, T/C [11]: 44.8%
viability, T/C [12]: 37.1%
viability, T/C [13]: 69.3%
viability, T/C [14]: 62.8%
viability, T/C [15]: 64%
viability, T/C [16]: 52.4%
viability, T/C [17]: 41.8%
viability, T/C [18]: 32.2%
viability, T/C [19]: 47.8%
viability, T/C [20]: 55.1%
viability, T/C [21]: 50.9%
viability, T/C [22]: 42.4%
viability, T/C [23]: 35.9%
viability, T/C [24]: 33.5%
viability, T/C [25]: 49.5%
viability, T/C [26]: 49.4%
viability, T/C [27]: 39.8%
viability, T/C [28]: 41.2%
viability, T/C [29]: 34.4%
viability, T/C [30]: 30.8%
viability, T/C [31]: 42.7%
viability, T/C [32]: 44.5%
viability, T/C [33]: 41.3%
viability, T/C [34]: 36.4%
viability, T/C [35]: 36.3%
viability, T/C [36]: 27.5%

CCc1c2c(nc3ccc(O)cc13)-c1cc3c(c(=O)n1C2)COC(=O)[C@]3(O)CC + Cc1cnc(CNC(=O)c2c(=O)c3ccc(N4CCCN(C)CC4)nc3n3c2sc2ccccc23)cn1
IC50 (second compound 0.0316 µM): 3.5 nM
IC50 (second compound 0.1 µM): 1.5 nM
IC50 (second compound 0.316 µM): 1.67 nM
IC50 (second compound 1 µM): < 0.999 nM
IC50 (second compound 3.16 µM): < 0.999 nM
IC50 (second compound 10 µM): < 0.999 nM
viability, T/C [1]: 79.5%
viability, T/C [2]: 47.6%
viability, T/C [3]: 36%
viability, T/C [4]: 19.6%
viability, T/C [5]: 12.6%
viability, T/C [6]: 4.96%
viability, T/C [7]: 54.7%
viability, T/C [8]: 42.7%
viability, T/C [9]: 26.6%
viability, T/C [10]: 21.9%
viability, T/C [11]: 11.4%
viability, T/C [12]: 4.78%
viability, T/C [13]: 53%
viability, T/C [14]: 47%
viability, T/C [15]: 30.9%
viability, T/C [16]: 19.5%
viability, T/C [17]: 10.7%
viability, T/C [18]: 5.12%
viability, T/C [19]: 40.2%
viability, T/C [20]: 38.9%
viability, T/C [21]: 33.2%
viability, T/C [22]: 20%
viability, T/C [23]: 11.9%
viability, T/C [24]: 5.51%
viability, T/C [25]: 42.6%
viability, T/C [26]: 35%
viability, T/C [27]: 27.3%
viability, T/C [28]: 22.1%
viability, T/C [29]: 11.1%
viability, T/C [30]: 6.82%
viability, T/C [31]: 33.8%
viability, T/C [32]: 29.4%
viability, T/C [33]: 25.1%
viability, T/C [34]: 19.9%
viability, T/C [35]: 5.56%
viability, T/C [36]: 0.25%

COc1cc(C2c3cc4c(cc3C(OC3OC5COC(C)OC5C(O)C3O)C3COC(=O)C23)OCO4)cc(OC)c1O (stereo unspecified) + Cc1cnc(CNC(=O)c2c(=O)c3ccc(N4CCCN(C)CC4)nc3n3c2sc2ccccc23)cn1
IC50 (second compound 0.0316 µM): 322 nM
IC50 (second compound 0.1 µM): 171 nM
IC50 (second compound 0.316 µM): 123 nM
IC50 (second compound 1 µM): < 31.6 nM
IC50 (second compound 3.16 µM): < 31.6 nM
IC50 (second compound 10 µM): < 31.6 nM
viability, T/C [4]: 87.9%
viability, T/C (second compound 0.0316 µM, first compound 0.1 µM): 63.1%
viability, T/C [6]: 49.7%
viability, T/C (second compound 0.0316 µM, first compound 1 µM): 38.1%
viability, T/C (second compound 0.0316 µM, first compound 3.16 µM): 21%
viability, T/C (second compound 0.0316 µM, first compound 10 µM): 8.67%
viability, T/C [10]: 65.4%
viability, T/C (second compound 0.1 µM, first compound 0.1 µM): 55.4%
viability, T/C [12]: 40.6%
viability, T/C (second compound 0.1 µM, first compound 1 µM): 36%
viability, T/C (second compound 0.1 µM, first compound 3.16 µM): 22.3%
viability, T/C (second compound 0.1 µM, first compound 10 µM): 8.6%
viability, T/C [16]: 55.6%
viability, T/C (second compound 0.316 µM, first compound 0.1 µM): 53.6%
viability, T/C [18]: 38.2%
viability, T/C (second compound 0.316 µM, first compound 1 µM): 41.3%
viability, T/C (second compound 0.316 µM, first compound 3.16 µM): 24.3%
viability, T/C (second compound 0.316 µM, first compound 10 µM): 8.95%
viability, T/C [22]: 56%
viability, T/C (second compound 1 µM, first compound 0.1 µM): 41.8%
viability, T/C [24]: 47.4%
viability, T/C (second compound 1 µM, first compound 1 µM): 41.5%
viability, T/C (second compound 1 µM, first compound 3.16 µM): 18.4%
viability, T/C (second compound 1 µM, first compound 10 µM): 9.08%
viability, T/C [28]: 49.9%
viability, T/C (second compound 3.16 µM, first compound 0.1 µM): 33.8%
viability, T/C [30]: 35.7%
viability, T/C (second compound 3.16 µM, first compound 1 µM): 34.8%
viability, T/C (second compound 3.16 µM, first compound 3.16 µM): 22.8%
viability, T/C (second compound 3.16 µM, first compound 10 µM): 8.98%
viability, T/C [34]: 42.4%
viability, T/C (second compound 10 µM, first compound 0.1 µM): 38.9%
viability, T/C [36]: 39.1%
viability, T/C (second compound 10 µM, first compound 1 µM): 33.3%
viability, T/C (second compound 10 µM, first compound 3.16 µM): 18.1%
viability, T/C (second compound 10 µM, first compound 10 µM): 3.75%
